Data on 15 compounds can be found in ChEMBL document CHEMBL1147422, “Synthesis and antitumor activity of 10-substituted benzylidene anthrone” (2004).

Experiment [1] concerns A549. Kind of experiment: Inhibition ratio against A-549 cancer cell growth at a concentration of 10e-7 mol/L. The class given is functional, Homo sapiens.
Experiment [2] has as its system A549. Put plainly: Inhibition ratio against A-549 cancer cell growth at a concentration of 10e-6 mol/L. The class given is functional, Homo sapiens.
Experiment [3] relates to P388. Kind of experiment: Inhibition ratio against P-388 cancer cell growth at a concentration of 10e-7 mol/L. Type of experiment: functional, Mus musculus.
The subject of experiment [4] is P388. Put plainly: Inhibition ratio against P-388 cancer cell growth at a concentration of 10e-5 mol/L. Type of experiment: functional, Mus musculus.
For experiment [5], the system named is A549. Kind of experiment: Inhibition ratio against A-549 cancer cell growth at a concentration of 10e-8 mol/L. The class given is functional, Homo sapiens.
The subject of experiment [6] is P388. Put plainly: Inhibition ratio against P-388 cancer cell growth at a concentration of 10e-4 mol/L. Type of experiment: functional, Mus musculus.
The subject of experiment [7] is A549. Kind of experiment: Inhibition ratio against A-549 cancer cell growth at a concentration of 10e-5 mol/L. Type of experiment: functional, Homo sapiens.
The subject of experiment [8] is P388. Put plainly: Inhibition ratio against P-388 cancer cell growth at a concentration of 10e-8 mol/L. Type of experiment: functional, Mus musculus.
The subject of experiment [9] is A549. Put plainly: Inhibition ratio against A-549 cancer cell growth at a concentration of 10e-4 mol/L. Type of experiment: functional, Homo sapiens.
Experiment [10] has as its system P388. Put plainly: Inhibition ratio against P-388 cancer cell growth at a concentration of 10e-6 mol/L. The class given is functional, Mus musculus.

Turning to `COc1ccc(C=C2c3ccccc3C(=O)c3ccccc32)cc1`, the Ratio in the experiment with A549 [1] was determined as 85.4; with A549 [2] it was 87; in the experiment on P388 [3] it was 64.3; in the experiment on P388 [4], 72.5; with A549 [5], 84.8; in the experiment on P388 [6] it was 76.7. The Ratio in the experiment on A549 [7] came out at 84.7; in the experiment with P388 [8], 75.5; in the experiment with A549 [9], 90; in the experiment on P388 [10] it was 76.5.

On to `O=C1c2ccccc2C(=Cc2ccc(O)cc2)c2ccccc21`, for which the Ratio in the experiment with A549 [1] is on record as 88.7; with A549 [2], 87.2; with P388 [3], 27.1; with P388 [4], 72; in the experiment on A549 [5], 60; in the experiment with P388 [6], 100. Besides, the Ratio amounted to 87 in the experiment with A549 [7], 42.8 in the experiment with P388 [8], 92.9 with A549 [9] and 41.6 with P388 [10].

Regarding `COc1ccccc1C=C1c2ccccc2C(=O)c2ccccc21`, the Ratio stood at 86.8 in the experiment on A549 [1]; 85.7 in the experiment on A549 [2]; 47 in the experiment on P388 [3]; 76.1 in the experiment on P388 [4]; 66.3 with A549 [5]; 82.2 in the experiment on P388 [6]. The Ratio in the experiment on A549 [7] worked out at 81.7; with P388 [8] it was 32.7; with A549 [9], 89.3; in the experiment with P388 [10] it was 55.4.

Take `O=C1c2ccccc2C(=Cc2ccccc2Cl)c2ccccc21`: the Ratio with A549 [1] is 6; with A549 [2], 0.3; in the experiment on P388 [3], 0; with P388 [4], 23.7; with A549 [5] it was 5.9; in the experiment with P388 [6] it was 58.4. Moreover, the Ratio with A549 [7] is 53; in the experiment with P388 [8], 0; with A549 [9] it was 89.9; in the experiment on P388 [10], 0.

Regarding `COc1cccc(C=C2c3ccccc3C(=O)c3ccccc32)c1`, the Ratio is listed as 38.1 in the experiment with A549 [1]; 25.1 with A549 [2]; 7.1 in the experiment with P388 [3]; 48.2 in the experiment with P388 [4]; 6.2 with A549 [5]; 96 with P388 [6]. For the same compound, the Ratio is 92.5 in the experiment with A549 [7], 1 with P388 [8], 95.8 in the experiment on A549 [9] and 27.2 with P388 [10].

Regarding `Cc1cccc(C=C2c3ccccc3C(=O)c3ccccc32)c1`, the Ratio in the experiment on A549 [1] was 0; in the experiment with A549 [2], 0; in the experiment with P388 [3] it was 0; in the experiment with P388 [4], 7.2; in the experiment on A549 [5], 0; with P388 [6], 53.3. Moreover, the Ratio is recorded as 18.2 in the experiment on A549 [7], 0 with P388 [8], 93 with A549 [9] and 0 with P388 [10].

For the compound `O=C1c2ccccc2C(=Cc2ccccc2O)c2ccccc21`, the Ratio in the experiment with A549 [1] turned out to be 83; with A549 [2] it was 89.3; in the experiment with P388 [3] it was 44.9; in the experiment with P388 [4], 88.2; in the experiment on A549 [5], 85.2; in the experiment with P388 [6], 95.6. Moreover, the Ratio in the experiment with A549 [7] was 94.8; in the experiment with P388 [8] it was 38.5; in the experiment with A549 [9] it was 96.3; in the experiment with P388 [10] it was 65.8.

On to `O=C1c2ccccc2C(=Cc2ccc(Cl)cc2)c2ccccc21`, for which the Ratio was 33.6 with A549 [1]; 41.9 with A549 [2]; 2.8 in the experiment with P388 [3]; 36 with P388 [4]; 41.7 in the experiment with A549 [5]; 70 in the experiment with P388 [6]. Moreover, the Ratio in the experiment on A549 [7] is recorded as 87.3; with P388 [8], 4.4; in the experiment with A549 [9], 96; with P388 [10] it was 3.9.

Consider `O=C1c2ccccc2C(=Cc2cccc([N+](=O)[O-])c2)c2ccccc21`, for which the Ratio is reported as 7.7 with A549 [1]; 12.4 with A549 [2]; 22.1 in the experiment on P388 [3]; 55.8 with P388 [4]; 13.2 with A549 [5]; 89.8 in the experiment on P388 [6]. For the same compound, the Ratio is reported as 91.8 with A549 [7], 30.7 in the experiment on P388 [8], 96 in the experiment with A549 [9] and 23.9 in the experiment with P388 [10].

In the case of `O=C1c2ccccc2C(=Cc2ccccc2)c2ccccc21`, the Ratio in the experiment with A549 [1] is given as 1; in the experiment on A549 [2] it was 9.8; with P388 [3] it was 0; in the experiment with P388 [4], 56.2; with A549 [5] it was 4.4; in the experiment with P388 [6], 97.8. Besides, the Ratio in the experiment with A549 [7] was determined as 79.9; in the experiment with P388 [8], 2.7; with A549 [9], 95.4; in the experiment with P388 [10], 17.8.

With `COc1ccc(C=C2c3ccccc3C(=O)c3ccccc32)cc1OC`, the Ratio in the experiment on A549 [1] is reported as 90.6; in the experiment with A549 [2], 87; in the experiment with P388 [3], 53.6; with P388 [4], 80.2; in the experiment on A549 [5] it was 81.7; with P388 [6] it was 95.7. Also, the Ratio stood at 92.8 in the experiment with A549 [7], 50.9 in the experiment with P388 [8], 95.7 with A549 [9] and 56 with P388 [10].

For `Cc1ccccc1C=C1c2ccccc2C(=O)c2ccccc21`, the Ratio in the experiment with A549 [1] is 0; in the experiment with A549 [2], 18.5; with P388 [3], 8; with P388 [4] it was 42.4; in the experiment with A549 [5] it was 5.7; with P388 [6], 84.1. The Ratio with A549 [7] came to 84.8; in the experiment on P388 [8], 13.1; in the experiment with A549 [9] it was 90.9; in the experiment on P388 [10] it was 24.9.

Turning to `O=C1c2ccccc2C(=Cc2cccc(Cl)c2)c2ccccc21`, the Ratio with A549 [1] is listed as 5.7; in the experiment on A549 [2] it was 62.9; with P388 [3] it was 19.3; in the experiment on P388 [4], 39.4; with A549 [5], 12.5; with P388 [6] it was 89.2. The Ratio in the experiment with A549 [7] was determined as 92; with P388 [8] it was 10.9; in the experiment on A549 [9], 97.1; in the experiment on P388 [10], 11.9.

As to `Cc1ccc(C=C2c3ccccc3C(=O)c3ccccc32)cc1`, the Ratio with A549 [1] is 92.7; in the experiment with A549 [2] it was 90; in the experiment on P388 [3], 49.3; in the experiment with P388 [4], 42.4; with A549 [5], 84.7; with P388 [6], 69. The Ratio is given as 91.8 in the experiment on A549 [7], 56.5 with P388 [8], 95.2 in the experiment with A549 [9] and 48.6 in the experiment with P388 [10].

For `O=C1c2ccccc2C(=Cc2ccc(F)cc2)c2ccccc21`, the Ratio was 18.5 in the experiment on A549 [1]; 56.5 in the experiment on A549 [2]; 10.3 in the experiment with P388 [3]; 31.4 in the experiment on P388 [4]; 49.2 with A549 [5]; 83.3 in the experiment with P388 [6]. In addition, the Ratio with A549 [7] is 88.2; with P388 [8], 5.2; in the experiment on A549 [9], 96.8; in the experiment with P388 [10], 18.4.
